Experimental data from patent US20150031668A1, “CHROMAN DERIVATIVES AS TRPM8 INHIBITORS” (AMGEN INC., priority 2013, published 2015).
pIC50: −log10 of the molar value. Structures can show the parent of a compound that is named as a salt.

Molecular target: T1, human TRPM8 (Homo sapiens, UniProt Q7Z2W7)
T1 construct: expressed in transfected cells; host or cells: Chinese hamster ovary (CHO) cells, T-REx tetracycline-inducible expression system (Invitrogen); co-transfected with pcDNA3.1 aequorin
Experiment: Luminescence readout assay for measuring intracellular calcium (aequorin, CHO cells expressing human TRPM8; icilin, L-menthol or cold activation)
Assay type: cell-based
Conditions: CHO cells expressing human TRPM8, icilin activation (1 μM), aequorin luminescence; read-out: hTRPM8 IC50
How it was run: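 Activation was by 1 μM icilin, 100 μM L-menthol (test compound 2.5 min ahead) or cold buffer below 10° C (compound 1 min ahead). Calcium rise measured as aequorin luminescence in CHO cells with tetracycline-inducible human TRPM8.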

T1 sequence (Q7Z2W7 whole entry): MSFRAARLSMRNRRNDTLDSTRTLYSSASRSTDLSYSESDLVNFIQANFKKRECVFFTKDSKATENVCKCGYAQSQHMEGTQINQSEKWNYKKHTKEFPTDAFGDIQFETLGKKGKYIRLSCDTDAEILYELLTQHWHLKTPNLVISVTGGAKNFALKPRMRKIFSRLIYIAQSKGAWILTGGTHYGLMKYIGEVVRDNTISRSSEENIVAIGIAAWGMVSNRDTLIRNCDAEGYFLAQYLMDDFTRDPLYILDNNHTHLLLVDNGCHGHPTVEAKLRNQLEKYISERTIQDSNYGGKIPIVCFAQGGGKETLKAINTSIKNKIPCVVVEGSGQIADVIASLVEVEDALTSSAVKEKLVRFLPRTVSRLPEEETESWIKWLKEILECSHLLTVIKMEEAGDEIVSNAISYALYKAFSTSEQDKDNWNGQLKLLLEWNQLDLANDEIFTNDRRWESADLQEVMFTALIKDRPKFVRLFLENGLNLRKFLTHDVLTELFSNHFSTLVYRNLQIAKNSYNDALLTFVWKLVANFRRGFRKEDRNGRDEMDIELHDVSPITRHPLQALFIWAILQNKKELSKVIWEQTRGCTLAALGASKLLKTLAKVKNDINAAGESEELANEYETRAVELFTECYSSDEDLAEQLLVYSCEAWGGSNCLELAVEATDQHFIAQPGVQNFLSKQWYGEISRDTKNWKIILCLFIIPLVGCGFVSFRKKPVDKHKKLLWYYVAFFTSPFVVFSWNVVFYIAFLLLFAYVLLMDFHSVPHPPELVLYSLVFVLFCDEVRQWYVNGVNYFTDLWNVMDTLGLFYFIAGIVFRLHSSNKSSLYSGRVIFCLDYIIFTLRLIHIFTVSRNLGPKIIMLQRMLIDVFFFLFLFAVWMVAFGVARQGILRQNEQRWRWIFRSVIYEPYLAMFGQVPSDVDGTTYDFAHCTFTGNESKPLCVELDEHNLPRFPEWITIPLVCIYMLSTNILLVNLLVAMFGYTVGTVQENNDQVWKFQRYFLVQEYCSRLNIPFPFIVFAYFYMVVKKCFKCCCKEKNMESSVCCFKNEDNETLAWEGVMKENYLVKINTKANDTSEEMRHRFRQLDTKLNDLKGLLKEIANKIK

Compound: Cc1cc([C@@]2(NC(=O)c3ccc(=O)[nH]c3)CCOc3cccnc32)ccc1OC(F)(F)F [Example 199, (S)-N-(4-(3-methyl-4-(trifluoromethoxy)phenyl)-3,4-dihydro-2H-pyrano[3,2-b]pyridin-4-yl)-6-oxo-1,6-dihydropyridine-3-carboxamide]
- pIC50: 7.92

Compound: O=C(N[C@]1(c2ccc(OC(F)(F)F)c(F)c2)CCOc2cccnc21)c1cc(Cl)on1 [Example 200, (S)-5-chloro-N-(4-(3-fluoro-4-(trifluoromethoxy)phenyl)-3,4-dihydro-2H-pyrano[3,2-b]pyridin-4-yl) isoxazole-3-carboxainide]
- pIC50: 6.79

Compound: COC(=O)c1ccnc(C(=O)N[C@]2(c3ccc(OC(F)(F)F)c(F)c3)CCOc3cccnc32)c1 [Example 201, (S)-methyl 2-((4-(3-fluoro-4-(trifluoromethoxy)phenyl)-3,4-dihydro-2H-pyrano[3,2-b]pyridin-4-yl)carbamoyl) isonicotinate]
- pIC50: 7.68

Compound: C[C@@H](O)Cn1cc(C(=O)N[C@]2(c3ccc(OC(F)(F)F)c(F)c3)CCOc3cccnc32)ccc1=O [Example 202, N-((S)-4-(3-fluoro-4-(trifluoromethoxy)phenyl)-3,4-dihydro-2H-pyrano[3,2-b]pyridin-4-yl)-1-((R)-2-hydroxypropyl)-6-oxo-1,6-dihydropyridine-3-carboxamide]
- pIC50: 7.57

Compound: O=C(N[C@]1(c2ccc(OC(F)(F)F)c(F)c2)CCOc2cccnc21)c1ccc(Br)s1 [Example 203, (S)-5-bromo-N-(4-(3-fluoro-4-(trifluoromethoxy)phenyl)-3,4-dihydro-2H-pyrano[3,2-b]pyridin-4-yl) thiophene-2-carboxamide]
- pIC50: 7.13

Compound: O=C(N[C@]1(c2ccc(C(F)(F)F)cc2)CCOc2cccnc21)c1cc(F)c(O)c(F)c1 [Example 205, (S)-3,5-difluoro-4-hydroxy-N-(4-(4-(trifluoromethyl)phenyl)-3,4-dihydro-2H-pyrano[3,2-b]pyridin-4-yl) benzamide]
- pIC50: 8.40

Compound: O=C(N[C@]1(c2ccc(OC(F)(F)F)c(F)c2)CCOc2cccnc21)c1ccc(Br)cn1 [Example 206, (S)-5-bromo-N-(4-(3-fluoro-4-(trifluoromethoxy)phenyl)-3,4-dihydro-2H-pyrano[3,2-b]pyridin-4-yl) picolinamide]
- pIC50: 7.89

Compound: O=C(N[C@]1(c2ccc(OC(F)(F)F)c(F)c2)CCOc2cccnc21)c1cc(F)c(O)c(F)c1 [Example 207, (S)-3,5-difluoro-N-(4-(3-fluoro-4-(trifluoromethoxy)phenyl)-3,4-dihydro-2H-pyrano[3,2-b]pyridin-4-yl)-4-hydroxybenzamide]
- pIC50: 9.00

Compound: O=C(N[C@]1(c2ccc(OC(F)(F)F)c(F)c2)CCOc2cccnc21)c1ccc(Br)o1 [Example 208, (S)-5-bromo-N-(4-(3-fluoro-4-(trifluoromethoxy)phenyl)-3,4-dihydro-2H-pyrano[3,2-b]pyridin-4-yl)furan-2-carboxamide]
- pIC50: 7.96

Compound: COC(=O)c1cc2ccc(C(=O)N[C@]3(c4ccc(OC(F)(F)F)c(F)c4)CCOc4cccnc43)cc2[nH]1 [Example 209, (S)-methyl 6-((4-(3-fluoro-4-(trifluoromethoxy)phenyl)-3,4-dihydro-2H-pyrano[3,2-b]pyridin-4-yl)carbamoyl)-1H-indole-2-carboxylate]
- pIC50: 7.35

Compound: O=C(N[C@]1(c2ccc(OC(F)(F)F)cc2)CCOc2cccnc21)c1ncc[nH]1 [Example 210, (S)-N-(4-(4-(trifluoromethoxy)phenyl)-3,4-dihydro-2H-pyrano[3,2-b]pyridin-4-yl)-1H-imidazole-2-carboxamide formate]
- pIC50: 5.64

Compound: O=C(N[C@]1(c2ccc(OC(F)(F)F)cc2)CCOc2cccnc21)c1cc[nH]n1 [Example 211, (S)-N-(4-(4-(trifluoromethoxy)phenyl)-3,4-dihydro-2H-pyrano[3,2-b]pyridin-4-yl)-1H-pyrazole-3-carboxamide formate]
- pIC50: 6.47

Compound: O=C(N[C@]1(c2ccc(OC(F)(F)F)cc2)CCOc2cccnc21)c1nnc[nH]1 [Example 212, (S)-N-(4-(4-(trifluoromethoxy)phenyl)-3,4-dihydro-2H-pyrano[3,2-b]pyridin-4-yl)-4H-1,2,4-triazole-3-carboxamide formate]
- pIC50: 5.77

Compound: O=C(N[C@]1(c2ccc(OC(F)(F)F)cc2)CCOc2cccnc21)c1ccns1 [Example 213, (S)-N-(4-(4-(trifluoromethoxy)phenyl)-3,4-dihydro-2H-pyrano[3,2-b]pyridin-4-yl)isothiazole-5-carboxamide formate]
- pIC50: 7.09

Compound: O=C(N[C@]1(c2ccc(OC(F)(F)F)cc2)CCOc2cccnc21)c1cnns1 [Example 214, (S)-N-(4-(4-(trifluoromethoxy)phenyl)-3,4-dihydro-2H-pyrano[3,2-b]pyridin-4-yl)-1,2,3-thiadiazole-5-carboxamide formate]
- pIC50: 6.72

Compound: O=C(N[C@]1(c2ccc(OC(F)(F)F)cc2)CCOc2cccnc21)c1cc2cccnc2[nH]1 [Example 216, (S)-N-(4-(4-(trifluoromethoxy)phenyl)-3,4-dihydro-2H-pyrano[3,2-b]pyridin-4-yl)-1H-pyrrolo[2,3-b] pyridine-2-carboxamide formate]
- pIC50: 6.57

Compound: O=C(N[C@]1(c2ccc(OC(F)(F)F)cc2)CCOc2cccnc21)c1c[nH]c2ncccc12 [Example 217, (S)-N-(4-(4-(trifluoromethoxy)phenyl)-3,4-dihydro-2H-pyrano[3,2-b]pyridin-4-yl)-1H-pyrrolo[2,3-b] pyridine-3-carboxamide fonnate]
- pIC50: 7.34

Compound: O=C(N[C@]1(c2ccc(OC(F)(F)F)cc2)CCOc2cccnc21)c1ccnc2[nH]ccc12 [Example 218, (S)-N-(4-(4-(trifluoromethoxy)phenyl)-3,4-dihydro-2H-pyrano[3,2-b]pyridin-4-yl)-1H-pyrrolo[2,3-b] pyridine-4-carboxamide formate]
- pIC50: 8.00

Compound: O=C(N[C@]1(c2ccc(OC(F)(F)F)cc2)CCOc2cccnc21)c1cc2ccccn2n1 [Example 219, (S)-N-(4-(4-(trifluoromethoxy)phenyl)-3,4-dihydro-2H-pyrano[3,2-b]pyridin-4-yl) pyrazolo[1,5-a] pyridine-2-carboxainide formate]
- pIC50: 7.96

Compound: O=C(N[C@]1(c2ccc(OC(F)(F)F)cc2)CCOc2cccnc21)c1cc2n(n1)CCCO2 [Example 220, (S)-N-(4-(4-(trifluoromethoxy)phenyl)-3,4-dihydro-2H-pyrano[3,2-b]pyridin-4-yl)-6,7-dihydro-5H-pyrazolo[5,1-b] [1,3]oxazine-2-carboxamide formate]
- pIC50: 7.80

Compound: O=C(N[C@]1(c2ccc(OC(F)(F)F)cc2)CCOc2cccnc21)c1cccc2cccnc12 [Example 221, (S)-N-(4-(4-(trifluoromethoxy)phenyl)-3,4-dihydro-2H-pyrano[3,2-b]pyridin-4-yl)quinoline-8-carboxamide formate]
- pIC50: 7.51

Compound: Cc1ccc2[nH]c(C(=O)N[C@]3(c4ccc(OC(F)(F)F)cc4)CCOc4cccnc43)cc2c1 [Example 222, (S)-5-methyl-N-(4-(4-(trifluoromethoxy)phenyl)-3,4-dihydro-2H-pyrano[3,2-b]pyridin-4-yl)-1H-indole-2-carboxamide formate]
- pIC50: 5.70

Compound: O=C(N[C@]1(c2ccc(OC(F)(F)F)cc2)CCOc2cccnc21)c1ccc2c(=O)[nH]ccc2c1 [Example 223, (S)-1-oxo-N-(4-(4-(trifluoromethoxy)phenyl)-3,4-dihydro-2H-pyrano[3,2-b]pyridin-4-yl)-1,2-dihydroisoquinoline-6-carboxamide formate]
- pIC50: 8.00

Compound: O=C(N[C@]1(c2ccc(OC(F)(F)F)cc2)CCOc2cccnc21)c1cc2nccc(C3CC3)n2n1 [Example 224, (S)-7-cyclopropyl-N-(4-(4-(trifluoromethoxy)phenyl)-3,4-dihydro-2H-pyrano[3,2-b]pyridin-4-yl) pyrazolo[1,5-a] pyrimidine-2-carboxamide formate]
- pIC50: 6.94

Compound: COc1ccc2cc(C(=O)N[C@]3(c4ccc(OC(F)(F)F)cc4)CCOc4cccnc43)cnc2c1 [Example 225, (S)-7-methoxy-N-(4-(4-(trifluoromethoxy)phenyl)-3,4-dihydro-2H-pyrano[3,2-b]pyridin-4-yl)quinoline-3-carboxamide formate]
- pIC50: 7.92

Compound: O=C(N[C@]1(c2ccc(OC(F)(F)F)cc2)CCOc2cccnc21)c1cocn1 [Example 226, (S)-N-(4-(4-(trifluoromethoxy)phenyl)-3,4-dihydro-2H-pyrano[3,2-b]pyridin-4-yl)oxazole-4-carboxamide formate]
- pIC50: 6.82

Compound: Cn1ccc(C(=O)N[C@]2(c3ccc(OC(F)(F)F)cc3)CCOc3cccnc32)n1 [Example 227, (S)-1-methyl-N-(4-(4-(trifluoromethoxy)phenyl)-3,4-dihydro-2H-pyrano[3,2-b]pyridin-4-yl)-1H-pyrazole-3-carboxamide formate]
- pIC50: 7.23

Compound: Cn1nccc1C(=O)N[C@]1(c2ccc(OC(F)(F)F)cc2)CCOc2cccnc21 [Example 228, (S)-1-methyl-N-(4-(4-(trifluoromethoxy)phenyl)-3,4-dihydro-2H-pyrano[3,2-b]pyridin-4-yl)-lH-pyrazole-5-carboxamide formate_]
- pIC50: 6.98

Compound: O=C(N[C@]1(c2ccc(OC(F)(F)F)cc2)CCOc2cccnc21)c1cccs1 [Example 229, (S)-N-(4-(4-(trifluoromethoxy)phenyl)-3,4-dihydro-2H-pyrano[3,2-b]pyridin-4-yl)thiophene-2-carboxamide fomiate]
- pIC50: 6.84

Compound: O=C(N[C@]1(c2ccc(OC(F)(F)F)cc2)CCOc2cccnc21)c1ccsc1 [Example 230, (S)-N-(4-(4-(trifluoromethoxy)phenyl)-3,4-dihydro-2H-pyrano[3,2-b]pyridin-4-yl)thiophene-3-carboxamide formate]
- pIC50: 7.70

Compound: O=C(N[C@]1(c2ccc(OC(F)(F)F)cc2)CCOc2cccnc21)c1cscn1 [Example 231, (S)-N-(4-(4-(trifluoromethoxy)phenyl)-3,4-dihydro-2H-pyrano[3,2-b]pyridin-4-yl)thiazole-4-carboxamide formate]
- pIC50: 7.34
